In patent publication US8129547B2, “Anticoagulation of human blood ex vivo” (priority 2006, dated 2012):

Legend:
Factor Xa = target: T1, Factor Xa (Homo sapiens, UniProt P00742); test: Determination of Ki values, chromogenic substrate, Dixon evaluation: Factor Xa; format: biochemical; conditions: 25° C., tris buffer pH 8.0, substrate CH3OCO-D-Cha-Gly-Arg-pNA
T1 construct: purchased Haemochrom Diagnostica GmbH (Essen, D)

human vein blood = test: Storage of human vein blood after anticoagulation with inhibitor (F1+2 immunoassay); conditions: 25° C.
Method: In the sense of the invention anticoagulation means that the re-formation of thrombin is inhibited in the sampled blood. According to the invention thrombin re-formation is inhibited when no more than 1 nM of thrombin is re-formed in the sampled blood. As described above, the activation of prothrombin to thrombin represents an essential step in the blood coagulation cascade. In this case the prothrombin fragment 1+2 (F1+2) is released in equivalent quantities. It is therefore possible to quantify the thrombin actually formed by determining the fragment produced, thus enabling the prothrombin fragment F1+2 to be used as an indirect marker of an activation of prothrombin to thrombin. The concentration of the prothrombin fragment F1+2 formed may be determined immunologically, for example, with commercial enzyme immunoassays (for example Enzygnost F1+2 micro, Dade Behring GmbH, Marburg).
According to the invention anticoagulation therefore means that no more than 1 nM of prothrombin fragment F1+2 is newly formed in the blood after its sampling. […] Without suitable treatment of the blood to prevent coagulation there is an increase in the concentration of the prothrombin fragment F1+2 in this example to well over 1.3 nM, within a few minutes, due to the plasmatic coagulation, i.e. the blood coagulates.
In this experiment it was determined how long human vein blood can be stored without the formation of thrombin or activation of thrombocytes.
For this purpose blood (9 parts) sampled from a patient was mixed with inhibitor solution (0.05 mM, 0.5 mM or 5 mM in physiological NaCl solution; 1 part). Some of the blood was stored at 25° C., the remainder in the refrigerator at 4° C. The quantity of thrombin formed was determined immunologically during storage based on the formation of the prothrombin fragment F1+2 (Enzygnost F1+2 micro, Dade Behring GmbH, Marburg). […] In this case it is irrelevant whether the blood samples were kept at room temperature (approx. 25° C.) or at 4° C.
For this purpose blood (9 parts) sampled from a patient was mixed with inhibitor solution (0.05 mM, 0.5 mM or 5 mM in physiological NaCl solution; 1 part) and stored at room temperature (about 22±2° C.). The quantity of thrombin formed was determined immunologically during storage based on the formation of the prothrombin fragment F1+2 (Enzygnost F1+2 micro, Dade Behring GmbH, Marburg). It was shown that BAPA′ is capable of keeping anticoagulated blood uncoagulated at a concentration in the blood of 500 μM or 50 μM for more than 48 hours (Table 4). At a concentration of 5 μM BAPA′ prevents coagulation for more than 8 hours.

Factor XIa = target: T2, Factor XIa (Homo sapiens, UniProt P03951); test: Determination of Ki values, chromogenic substrate, Dixon evaluation: Factor XIa; format: biochemical; conditions: 25° C., tris buffer pH 8.0, substrate H-D-Lys(Cbo)-Pro-Arg-pNA
T2 construct: purchased Haemochrom Diagnostica GmbH (Essen, D)
Excerpt: (§1) The inhibitors used here are the commercially available exemplary inhibitors Pefabloc tPA/Xa (2,7-bis(4-amidinobenzylidene)-cyclopeptanone-(1), Pentapharm Ltd. Basel, Switzerland), CJ-FXa (benzylsulphonyl-D-arginyl-glycyl-4-amidinobenzylamide, Haemochrom GmbH, Essen, Germany) and CJ-PK (benzylsulphonyl-D-seryl-carbobenzoxylsyl-4-amidinobenzylamide, Haemochrom GmbH, Essen, Germany). Research samples were available of DX-9065a ((+)-(2S)-2-[4-[[3S)-1-acetimidoyl-3-pyrrodinyl]oxy]phenyl]-3-[7-amidino-2-naphthyl]propanic acid, Daiichi Pharmaceutical Company Ltd., Tokyo, Japan), and Otamixaban (2-(R)-(3-carbamimidoylbenyzyl)-3-(R)-[4-(1-oxypyridin-4-yl)benzoylamino]-butyric acid-methylester, Sanofi-Aventis GmbH, Frankfurt, Germany), both of which are undergoing clinical tests. In order to examine the inhibitory action of these exemplarily used inhibitors on the blood coagulation factors plasma-kallikrein, VIIa, Xa, XIa and XIIa, the Ki values of the respective enzyme-inhibitor complexes were determined.
(§2) The enzymes were produced by Haemochrom Diagnostica GmbH (Essen, D) and were dissolved in 0.154 mol/l NaCl. The substrates (Pentapharm AG, Basel, CH) were dissolved in H2O and the inhibitor was dissolved in the above-mentioned tris buffer. The following substrates were used for the individual enzymes:
(§3) 200 μl of inhibitor solution were mixed with 25 μl of substrate for the determination and the reaction was started by the addition of 50 μl of enzyme. After a reaction time of 3-5 mins. 25 μl of acetic acid (50%) were added and the extinction was measured at 405 nm with a microplate reader (iEMS Reader MF 12401, Labsystems, Helsinki, Finland). The evaluation was carried out graphically according to Dixon (Biochem. J., 55, 170, 1953).
(§4) The enzymes were produced by Haemochrom Diagnostica GmbH (Essen, D), and only thrombin was manufactured in our own laboratory according to Walsmann (Pharmazie 23, 401-402, 1968). All the enzymes were dissolved in 0.154 mol/l NaCl. The substrates (Pentapharm AG, Basel, CH) were dissolved in H2O and the inhibitor was dissolved in the above-mentioned tris buffer. The following substrates were used for the individual enzymes:
as §3, with “1401,” for “12401,”

Factor VIIa = target: T3, Factor VIIa (Homo sapiens, UniProt P08709); test: Determination of Ki values, chromogenic substrate, Dixon evaluation: Factor VIIa; format: biochemical; conditions: 25° C., tris buffer pH 8.0, substrate CH3SO2-D-phe-Gly-Arg-pNA
T3 construct: purchased Haemochrom Diagnostica GmbH (Essen, D)
T3 sequence (P08709 213-466 limits assumed): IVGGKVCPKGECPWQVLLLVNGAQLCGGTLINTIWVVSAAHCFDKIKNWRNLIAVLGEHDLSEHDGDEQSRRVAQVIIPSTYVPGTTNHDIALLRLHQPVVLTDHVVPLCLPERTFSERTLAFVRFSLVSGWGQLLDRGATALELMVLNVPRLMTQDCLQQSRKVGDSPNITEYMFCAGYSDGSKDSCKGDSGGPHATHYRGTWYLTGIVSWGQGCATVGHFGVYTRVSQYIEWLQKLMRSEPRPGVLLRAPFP
T3 sequence (P08709 61-212 partner limits assumed): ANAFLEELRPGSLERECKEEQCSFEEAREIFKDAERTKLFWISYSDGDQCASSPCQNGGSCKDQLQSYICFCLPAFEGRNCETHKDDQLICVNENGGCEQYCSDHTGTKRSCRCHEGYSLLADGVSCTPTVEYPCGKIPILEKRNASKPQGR
Excerpt: as §1, §2, §3, §4
as §3, with “1401,” for “12401,”

T2 sequence (P03951 388-625 limits assumed): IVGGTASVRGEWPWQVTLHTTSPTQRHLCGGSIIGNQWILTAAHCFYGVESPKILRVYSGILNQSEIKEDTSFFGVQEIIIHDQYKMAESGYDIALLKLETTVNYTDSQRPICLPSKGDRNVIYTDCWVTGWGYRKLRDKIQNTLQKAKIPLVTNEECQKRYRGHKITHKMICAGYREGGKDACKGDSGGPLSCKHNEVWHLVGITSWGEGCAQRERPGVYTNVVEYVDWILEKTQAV
T2 sequence (P03951 19-387 partner limits assumed): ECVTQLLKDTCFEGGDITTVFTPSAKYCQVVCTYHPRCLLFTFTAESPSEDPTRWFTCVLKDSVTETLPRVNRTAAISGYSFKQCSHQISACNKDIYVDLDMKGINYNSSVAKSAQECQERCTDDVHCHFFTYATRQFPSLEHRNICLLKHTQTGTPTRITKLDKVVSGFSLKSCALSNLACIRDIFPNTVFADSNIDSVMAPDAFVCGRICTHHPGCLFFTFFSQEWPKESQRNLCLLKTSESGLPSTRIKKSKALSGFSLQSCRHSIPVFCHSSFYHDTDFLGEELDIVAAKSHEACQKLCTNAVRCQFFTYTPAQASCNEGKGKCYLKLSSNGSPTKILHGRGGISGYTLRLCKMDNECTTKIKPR
T1 sequence (P00742 235-488 limits assumed): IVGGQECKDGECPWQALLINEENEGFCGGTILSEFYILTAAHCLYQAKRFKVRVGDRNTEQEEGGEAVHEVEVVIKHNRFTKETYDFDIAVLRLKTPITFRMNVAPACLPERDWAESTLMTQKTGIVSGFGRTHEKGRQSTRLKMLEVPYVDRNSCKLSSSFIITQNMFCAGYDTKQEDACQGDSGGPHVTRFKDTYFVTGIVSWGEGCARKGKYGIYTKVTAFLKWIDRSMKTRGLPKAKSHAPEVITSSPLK
T1 sequence (P00742 41-179 partner limits assumed): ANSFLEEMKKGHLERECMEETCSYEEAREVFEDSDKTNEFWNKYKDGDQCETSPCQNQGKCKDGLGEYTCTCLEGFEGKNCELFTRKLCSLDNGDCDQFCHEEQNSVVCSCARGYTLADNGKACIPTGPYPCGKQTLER

Structure (SMILES)	Ki (Factor Xa) [µM]	Anticoagulation time (human vein blood; concentration in the blood 500 μM) [h]	Ki (Factor XIa) [µM]	Ki (Factor VIIa) [µM]	Anticoagulation time (human vein blood; concentration in the blood 5 μM) [h]
N=C(N)c1ccc(C=C2CCCCC(=Cc3ccc(C(=N)N)cc3)C2=O)cc1 [Pefabloc tPA/Xa, 2,7-bis(4-amidinobenzylidene)-cycloheptanone-(1)]	0.0051	7 to 10	42	140	
COC(=O)[C@H](Cc1cccc(C(=N)N)c1)[C@@H](C)NC(=O)c1ccc(-c2cc[n+]([O-])cc2)cc1 (mixture of isomers) [Otamixaban, 2-(R)-(3-carbamimidoylbenyzyl)-3-(R)-[4-(1-oxypyridin-4-yl)benzoylamino]-butyric acid-methylester]			23	19	12 to 24
